Measurements from patent US8232406B2, “c-MET protein kinase inhibitors” (Vertex Pharmaceuticals Incorporated, priority 2006, dated 2012).

biological target: c-MET (Homo sapiens, UniProt P08581); experiment: Ki determination for the inhibition of c-MET (standard radiometric 33P-ATP kinase assay, polyE4Y substrate); assay type: biochemical; settings: 1.0 nM c-Met, 35 μM ATP, 0.5 mg/mL polyE4Y, 20 min; competitive tight-binding fit
Outline: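 Ki obtained by fitting data to competitive tight-binding inhibition kinetics. c-Met at 1.0 nM phosphorylated polyE4Y (0.5 mg/mL) with 35 μM 33P-ATP for 20 min in pH 7.5 HEPES buffer with MgCl2, NaCl, BSA and DTT. Incorporated label measured by scintillation after TCA precipitation on filters.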

c-MET, sequence (P08581 25-1390): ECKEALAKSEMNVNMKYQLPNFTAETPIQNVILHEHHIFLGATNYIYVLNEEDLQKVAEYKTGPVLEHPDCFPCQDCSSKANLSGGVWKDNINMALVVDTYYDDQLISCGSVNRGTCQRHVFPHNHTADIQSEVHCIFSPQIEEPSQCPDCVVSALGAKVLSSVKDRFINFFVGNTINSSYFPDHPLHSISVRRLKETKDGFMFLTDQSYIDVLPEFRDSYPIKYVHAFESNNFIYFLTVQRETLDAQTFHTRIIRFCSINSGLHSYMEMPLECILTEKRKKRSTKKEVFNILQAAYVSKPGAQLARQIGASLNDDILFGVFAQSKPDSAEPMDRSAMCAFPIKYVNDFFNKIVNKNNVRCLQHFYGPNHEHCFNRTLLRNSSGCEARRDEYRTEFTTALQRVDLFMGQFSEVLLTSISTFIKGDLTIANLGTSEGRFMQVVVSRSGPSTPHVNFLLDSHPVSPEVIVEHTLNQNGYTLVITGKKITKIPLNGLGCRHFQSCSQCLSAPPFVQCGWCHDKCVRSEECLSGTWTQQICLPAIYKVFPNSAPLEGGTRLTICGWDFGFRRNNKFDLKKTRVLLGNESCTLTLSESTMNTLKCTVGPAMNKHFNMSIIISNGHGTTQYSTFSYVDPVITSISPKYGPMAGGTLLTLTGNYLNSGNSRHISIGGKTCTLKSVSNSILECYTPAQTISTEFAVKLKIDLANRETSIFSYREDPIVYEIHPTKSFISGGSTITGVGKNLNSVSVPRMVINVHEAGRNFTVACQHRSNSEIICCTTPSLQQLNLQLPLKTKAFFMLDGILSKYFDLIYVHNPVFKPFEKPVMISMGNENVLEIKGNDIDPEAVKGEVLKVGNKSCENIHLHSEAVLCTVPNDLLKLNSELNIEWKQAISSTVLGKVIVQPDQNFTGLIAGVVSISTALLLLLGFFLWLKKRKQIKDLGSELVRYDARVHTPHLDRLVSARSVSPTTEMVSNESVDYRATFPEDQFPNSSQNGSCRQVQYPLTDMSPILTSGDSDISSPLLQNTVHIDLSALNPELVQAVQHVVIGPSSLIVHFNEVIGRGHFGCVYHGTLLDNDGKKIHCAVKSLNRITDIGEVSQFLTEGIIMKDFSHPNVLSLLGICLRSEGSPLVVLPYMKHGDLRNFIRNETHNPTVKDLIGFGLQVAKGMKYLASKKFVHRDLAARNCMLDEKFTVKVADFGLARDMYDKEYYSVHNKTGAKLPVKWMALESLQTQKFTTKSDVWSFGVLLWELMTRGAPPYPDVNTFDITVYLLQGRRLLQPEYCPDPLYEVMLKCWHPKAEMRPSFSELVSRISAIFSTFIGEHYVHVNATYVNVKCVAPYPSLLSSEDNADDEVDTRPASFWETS

`CC(=O)N1CCC[C@@H]1C(=O)N1CC=C(c2cnc(N)c(-c3nnnn3-c3cccc(F)c3F)c2)CC1` [I-A-649] and `CC(C)N1CCC(n2cc(-c3cnc(N)c(-c4nnnn4-c4cccc(F)c4F)c3)cn2)CC1` [I-A-448] cannot be ordered by Ki: 100 to 1000 nM for the first, no more than 100 nM for the second.

`Nc1ncc(-c2cnn(C3CCNCC3)c2)cc1-c1nnnn1-c1cc(F)cc(F)c1Cl` [I-A-634] and `Nc1ncc(-c2cnn(C3CCNCC3)c2)cc1-c1nnnn1-c1cc(F)cc(F)c1` [I-A-627] fall in the same range of Ki: 100 to 1000 nM for the first, 100 to 1000 nM for the second.

`Nc1ncc(-c2cnn(C3CCN(CCF)CC3)c2)cc1-c1nnnn1-c1cccc(F)c1F` [I-A-452] and `CC(=O)c1ccc(-c2cnc(N)c(-c3nnnn3-c3cccc(F)c3F)c2)cc1` [I-A-219] cannot be ordered by Ki: no more than 100 nM for the first, no more than 100 nM for the second.

`CN1CCN(c2ccc(-c3cnc(N)c(-c4nc5cnccc5n4-c4cccc(F)c4F)c3)cc2)CC1` [I-D-2] and `Nc1ccc(-c2cnc(N)c(-c3nnnn3-c3cccc(Cl)c3Cl)c2)cc1` [I-A-86] cannot be ordered by Ki: no more than 100 nM for the first, no more than 100 nM for the second.

Compound `Nc1ncc(-c2cccc3c2OC(F)(F)O3)cc1-c1nnnn1-c1cccc(F)c1F` [I-A-310] has a Ki of 100 to 1000 nM.
